{"source": "patent US7906486B2", "about": "“Method of treating or preventing tissue deterioration, injury or damage due to disease of mucosa” (SciClone Pharmaceuticals, Inc., priority 2007, dated 2011)", "test_system": "oral mucositis induced by cis-platin 5 mg/kg and radiation 35 Gy (left cheek pouch)", "test": "Oral mucositis induced by a combination of cisplatin and acute radiation in hamsters, mucositis scoring (Example 4, SCI-04)", "type": "in vivo, Syrian Golden Hamsters", "parameters": "key to Mucositis score, day 6 / Mucositis score, day 8: 0: Pouch completely healthy. No erythema or vasodilation.; 1: Light to severe erythema and vasodilation. No erosion of mucosa.; 2: Severe erythema and vasodilation. Erosion of superficial aspects of mucosa leaving denuded areas. Decreased stippling of mucosa.; 3: Formation of off-white ulcers in one or more places. Ulcers may have a yellow/gray due to pseudomembrane. Cumulative size of ulcers should equal about ¼ of the pouch. Severe erythema and vasodilation.; 4: Cumulative seize of ulcers should equal about ½ of the pouch. Loss of pliability. Severe erythema and vasodilation.; 5: Virtually all of pouch is ulcerated. Loss of pliability (pouch can only partially be extracted from mouth); key to peak mean mucositis score: standard six-point oral mucositis scale; ulceration = score ≥3", "conditions": "for % Days >=3 / Days <3 / Days >=3: qd, sc, Days −1 to 20; for Days >=3: animal days with mucositis score of three or more", "procedure": "Forty Golden Syrian hamsters were prospectively randomized into four equally sized groups. Mucositis was induced on the left cheek pouch mucosa of golden Syrian hamsters by a single dose of cis-platin at 5 mg/kg given on day −1, and a single dose of radiation administered on day 0 at a dose of 35Gy. Beginning on day −1 and continuing once daily until day 20, SCV-07 was given by sub-cutaneous injection at doses of 10 μg/kg, 100 μg/kg or 1 mg/kg in a volume of 100 μL. Animals' activity and weight were evaluated daily. Beginning on day 6 and continuing on alternate days for the duration of the study, oral mucositis was evaluated using a standard scoring six point scale. The number of days of ulcerative mucositis was evaluated using a Chi-squared test of scores of ≧3 throughout the study, and the individual daily group scores were assessed with a Rank Sum Test.\nThe chemo-radiation model of oral mucositis in hamsters, developed by the Principal Investigator, has proven to be an accurate, efficient and cost-effective technique to provide a preliminary evaluation of anti-mucositis compounds. In this model, hamsters received a single dose of cis-platin at 5 mg/kg on day −1, followed by a single dose of radiation of 35 Gy to the left cheek pouch on day 0, rather than the single dose of 40 Gy on day 0 that is used in acute radiation studies. The course of mucositis in this model is very similar to the acute radiation model and results in peak mucositis scores approximately 16-18 days following radiation.\nHamsters received a single dose of cis-platin at 5 mg/kg on day −1 by intra-peritoneal injection, followed by a single dose of radiation of 35 Gy to the left cheek pouch on day 0. This was accomplished by anesthetizing the animals and everting the left buccal pouch, while protecting the rest of the animal's bodies with a lead shield. Test materials were given by sub-cutaneous injection once daily as detailed in Table 13. Mucositis was evaluated clinically starting on day 6, and continuing on alternate days until day 28. Test articles were given as from day −1 to day 20.\nThe grade of mucositis was scored, beginning day 6, and for every second day thereafter, through and including day 28. The effect on mucositis of each drug treatment compared to placebo was assessed according to the following parameters:\nOn each evaluation day, the number of animals with a blinded mucositis score of ≧3 in each drug treatment group was compared to the control group. Differences were compared on a cumulative basis and statistical significance was determined by chi-square analysis. Efficacy, in this analysis, is defined by a significant reduction in the number of days that a group of animals had ulcerations (scores 3) when compared to the control group.\nFor each evaluation day the scores of the control group were compared to those of the treated groups using non-parametric rank sum analysis. Treatment success was considered as a statistically significant lowering of scores in the treated group on 2 or more days from day 6 to day 28.\nForty (40) male Syrian Golden Hamsters were given an intraperitoneal injection of 5 mg/kg Cisplatin on day −1. On day 0 all animals were given an acute radiation dose of 35 Gy directed to their left buccal cheek pouch. This was accomplished by anesthetizing the animals and everting the left buccal pouch, while protecting the rest of the animals with a lead shield. Test materials were given by subcutaneous injection once daily as detailed in Table 13. Mucositis was evaluated clinically starting on Day 6, and continued on alternate days until day 28.\nIn this study, mucositis was induced with a combination of Cis-platin and radiation. Cis-platin was given as a single injection (IP) of 5 mg/kg on day −1. Radiation was given as a single focal dose of 35 Gy on day 0. Radiation was generated with a Philips 160 kVp (kilovolt potential) (18.75-ma) X-ray source at a focal distance of 30 cm, with a 3.0 mm hardened Al filtration system. […]", "key": {"[1]": {"conditions": "printed 100 ug/kg on days -1 to 20 (second such statement, third treated group)"}}, "note": "“And” between values parts separate entries of the source, which are not always exact repeats. Identical values can stand only once."}
{"smiles": "N[C@H](CCC(=O)N[C@@H](Cc1c[nH]c2ccccc12)C(=O)O)C(=O)O", "note": "[SCV-07, γ-D-glutamyl-L-tryptophan]", "values": [{"measurement": "P, daily mucositis scores (Mann-Whitney rank sum) vs saline controls", "setting": "10 ug/kg days -1 to 20, day 22", "value": 0.010}, {"measurement": "P, daily mucositis scores (Mann-Whitney rank sum) vs saline controls", "setting": "10 ug/kg days -1 to 20, day 24", "value": 0.022}, {"measurement": "P, daily mucositis scores (Mann-Whitney rank sum) vs saline controls", "setting": "10 ug/kg days -1 to 20, day 26", "value": 0.015}, {"measurement": "P, daily mucositis scores (Mann-Whitney rank sum) vs saline controls", "setting": "10 ug/kg days -1 to 20, day 28", "value": "< 0.001"}, {"measurement": "% of animal days with a mucositis score of 3 or higher", "setting": "10 ug/kg from day -1 to day 20", "value": 34.2, "unit": "%"}, {"measurement": "P, chi-squared test vs controls, days with score of 3 or higher", "setting": "10 ug/kg from day -1 to day 20", "value": "< 0.001"}, {"measurement": "day of peak mean mucositis score", "setting": "10 ug/kg from day -1 to day 20", "value": 16}, {"measurement": "peak mean mucositis score", "setting": "10 ug/kg from day -1 to day 20", "value": 2.9}, {"measurement": "% Days >=3", "setting": "10 ug/kg", "value": 34.2, "unit": "%"}, {"measurement": "Days <3", "setting": "10 ug/kg", "value": 158}, {"measurement": "Days >=3", "setting": "10 ug/kg", "value": 82}, {"measurement": "P, daily mucositis scores (Mann-Whitney rank sum) vs saline controls", "setting": "100 ug/kg days -1 to 20, day 6", "value": 0.015}, {"measurement": "P, daily mucositis scores (Mann-Whitney rank sum) vs saline controls", "setting": "100 ug/kg days -1 to 20, day 22", "value": 0.003}, {"measurement": "P, daily mucositis scores (Mann-Whitney rank sum) vs saline controls", "setting": "100 ug/kg days -1 to 20, day 24", "value": 0.005}, {"measurement": "P, daily mucositis scores (Mann-Whitney rank sum) vs saline controls", "setting": "100 ug/kg days -1 to 20, day 26", "value": "< 0.001"}, {"measurement": "P, daily mucositis scores (Mann-Whitney rank sum) vs saline controls", "setting": "100 ug/kg days -1 to 20, day 28", "value": "< 0.001"}, {"measurement": "peak mean mucositis score", "setting": "100 ug/kg from day -1 to day 20", "value": 2.8}, {"measurement": "% of animal days with a mucositis score of 3 or higher", "setting": "100 ug/kg on days -1 to 20", "value": 29.2, "unit": "%"}, {"measurement": "P, chi-squared test vs controls, days with score of 3 or higher", "setting": "100 ug/kg on days -1 to 20", "value": "< 0.001"}, {"measurement": "% Days >=3", "setting": "100 ug/kg", "value": 29.2, "unit": "%"}, {"measurement": "Days <3", "setting": "100 ug/kg", "value": 170}, {"measurement": "Days >=3", "setting": "100 ug/kg", "value": 70}, {"measurement": "P, daily mucositis scores (Mann-Whitney rank sum) vs saline controls", "setting": "1 mg/kg days -1 to 20, day 6", "value": 0.015}, {"measurement": "P, daily mucositis scores (Mann-Whitney rank sum) vs saline controls", "setting": "1 mg/kg days -1 to 20, day 20", "value": 0.029}, {"measurement": "P, daily mucositis scores (Mann-Whitney rank sum) vs saline controls", "setting": "1 mg/kg days -1 to 20, day 22", "value": 0.012}, {"measurement": "P, daily mucositis scores (Mann-Whitney rank sum) vs saline controls", "setting": "1 mg/kg days -1 to 20, day 24", "value": 0.001}, {"measurement": "P, daily mucositis scores (Mann-Whitney rank sum) vs saline controls", "setting": "1 mg/kg days -1 to 20, day 26", "value": 0.003}, {"measurement": "P, daily mucositis scores (Mann-Whitney rank sum) vs saline controls", "setting": "1 mg/kg days -1 to 20, day 28", "value": "< 0.001"}, {"measurement": "day of peak mean mucositis score", "setting": "1 mg/kg from day -1 to day 20", "value": 16}, {"measurement": "peak mean mucositis score", "setting": "1 mg/kg from day -1 to day 20", "value": 3.2}, {"measurement": "% Days >=3", "setting": "1 mg/kg", "value": 30.8, "unit": "%"}, {"measurement": "Days <3", "setting": "1 mg/kg", "value": 166}, {"measurement": "Days >=3", "setting": "1 mg/kg", "value": 74}, {"measurement": "Mucositis score, day 6", "setting": "Group 2 (SCV-07 10 μg/kg, day -1 to day 20), individual animal scores, two scores per animal, day 6", "value": "0 (14×) and 1 (6×)"}, {"measurement": "Mucositis score, day 8", "setting": "Group 2 (SCV-07 10 μg/kg, day -1 to day 20), individual animal scores, two scores per animal, day 8", "value": "0 (18×) and 1 (2×)"}, {"measurement": "severe mucositis, % of animals days evaluated", "setting": "SCV-07 treated animals (all test groups), 50% in vehicle controls", "value": "approximately 30%"}, {"measurement": "% of animal days with a mucositis score of 3 or higher", "setting": "[1]", "value": 30.8, "unit": "%"}, {"measurement": "P, chi-squared test vs controls, days with score of 3 or higher", "setting": "[1]", "value": "< 0.001"}]}
